Values of other authors in PMC12505607 (BMC Medicine, 2025).
Read-outs that look alike come from different tables or passages of the source.

How the values were obtained:
[1] = test system: patients
[2] = test system: MATE1
[3] = test system: OCT2
[4] = test system: MATE2-K

| SMILES | recommended dose for combination with endocrine therapy ([1]; in vivo) [mg BID] | patients with grade 3 fatigue as DLTs ([1]; phase 1 dose-escalation study) [patients] | incidence of grades 3–4 neutropenia ([1]; phase 1 study) [%] | MATE1 inhibition [2] | OCT2 inhibition [3] | MATE2-K inhibition [4] | incidence of grades 3–4 neutropenia ([1]; in vivo) [%] |
| --- | --- | --- | --- | --- | --- | --- | --- |
| CCN1CCN(Cc2ccc(Nc3ncc(F)c(-c4cc(F)c5nc(C)n(C(C)C)c5c4)n3)nc2)CC1 [abemaciclib] | 150 | 4 | 32.0 | inhibition | inhibition | inhibition | – |
| CC(=O)c1c(C)c2cnc(Nc3ccc(N4CCNCC4)cn3)nc2n(C2CCCC2)c1=O [palbociclib] | – | – | – | – | – | – | 33.0 |
| CN(C)C(=O)c1cc2cnc(Nc3ccc(N4CCNCC4)cn3)nc2n1C1CCCC1 [ribociclib] | – | – | 27.0 | – | – | – | – |
